Measurements published in the NIST ThermoML archive (doi:10.1021/je700152c).

Legend:
[1] = molar heat capacity at constant pressure; xn = mol fraction of the nth substance listed; details: 101 kPa, Liquid, x1 = 0.37
[2] = molar heat capacity at constant pressure; details: 101.33 kPa

CCCCn1cc[n+](C)c1.Cc1ccc(S(=O)(=O)[O-])cc1 [1-butyl-3-methylimidazolium tosylate] + O
[1]
Details	molar heat capacity at constant pressure [J/K/mol]
78.74 K	66.26
81.34 K	67.77
83.37 K	68.91
85.4 K	70.17
87.43 K	71.43
89.46 K	72.69
91.5 K	73.83
93.53 K	75.09
95.58 K	76.35
97.63 K	77.49
99.68 K	78.62
101.73 K	79.76
103.78 K	81.02
105.84 K	82.16
107.9 K	83.29
109.96 K	84.43
112.02 K	85.57
114.09 K	86.7
116.17 K	87.84
118.24 K	88.97
120.32 K	90.23
122.39 K	91.37
124.47 K	92.51
126.55 K	93.64
128.64 K	94.78
130.73 K	96.04
132.81 K	97.3
134.9 K	98.31
136.98 K	99.57
139.08 K	100.71
141.17 K	101.85
143.27 K	103.11
145.36 K	104.24
147.46 K	105.38
149.56 K	106.64
151.66 K	107.78
153.77 K	108.91
155.87 K	110.17
157.98 K	111.44
160.09 K	112.57
162.2 K	113.71
164.31 K	114.97
166.42 K	116.23
168.54 K	117.37
170.66 K	118.63
172.78 K	119.89
174.9 K	121.03
177.02 K	122.29
179.14 K	123.55
181.27 K	124.94
183.39 K	126.58
185.51 K	128.6
187.64 K	131.63
189.76 K	138.07
191.84 K	148.79
193.9 K	159.02
195.93 K	176.18
198 K	179.59
200.12 K	180.34
202.26 K	181.1
204.39 K	181.73
206.52 K	182.24
208.65 K	182.87
210.79 K	183.5
212.93 K	184.13
215.07 K	184.63
217.23 K	185.39
219.38 K	185.9
221.54 K	186.65
223.7 K	187.28
225.87 K	188.04

CCCCn1cc[n+](C)c1.Cc1ccc(S(=O)(=O)[O-])cc1 [1-butyl-3-methylimidazolium tosylate]
[2]
Details	molar heat capacity at constant pressure [J/K/mol]
5 K, Crystal 2	2.54
10 K, Crystal 2	11.91
15 K, Crystal 2	24.31
20 K, Crystal 2	37.67
25 K, Crystal 2	51.27
30 K, Crystal 2	64.46
35 K, Crystal 2	76.73
40 K, Crystal 2	87.97
45 K, Crystal 2	98.44
50 K, Crystal 2	108.3
60 K, Crystal 2	125.9
70 K, Crystal 2	141.6
80 K, Crystal 2	156
90 K, Crystal 2	169.3
100 K, Crystal 2	181.9
105 K, Crystal 2	188.1
110 K, Crystal 2	194.1
120 K, Crystal 2	206
130 K, Crystal 2	218
140 K, Crystal 2	230
150 K, Crystal 2	241.9
152.77 K, Crystal 1	238.4
152.77 K, Crystal 2	245.2
160 K, Crystal 1	246.2
170 K, Crystal 1	257
180 K, Crystal 1	267.8
190 K, Crystal 1	278.8
200 K, Crystal 1	289.9
210 K, Crystal 1	301.5
220 K, Crystal 1	313.3
230 K, Crystal 1	335.4
240 K, Crystal 1	348.3
250 K, Crystal 1	359.9
260 K, Crystal 1	371.2
270 K, Crystal 1	382.3
280 K, Crystal 1	393.3
290 K, Crystal 1	404.1
298.15 K, Crystal 1	412.7
300 K, Crystal 1	414.6
310 K, Crystal 1	425
320 K, Crystal 1	435.3
330 K, Crystal 1	445.3
340 K, Crystal 1	455.1
343.89 K, Crystal 1	458.7
343.89 K, Liquid	543.4
350 K, Liquid	548.4
360 K, Liquid	556
370 K, Liquid	563.1
380 K, Liquid	569.8
